In US20140031217A1, “HERBICIDAL COMPOSITIONS COMPRISING 4-AMINO-3-CHLORO-5-FLUORO-6-(4-CHLORO-2-FLUORO-3-METHOXYPHENYL)PYRIDINE-2-CARBOXYLIC ACID OR A DERIVATIVE THEREOF AND AUXIN TRANSPORT INHIBITORS” (DOW AGROSCIENCES LLC, priority 2012, published 2014):

Legend:
ECHCG = assay: Postemergence foliar-applied greenhouse weed control, ECHCG; assay type: in vivo, Echinochloa crusgalli (L.) Beauv.; conditions: 20 DAA
Description: Seeds or nutlets of the desired test plant species were planted in a soil matrix prepared by mixing a loam or sandy loam soil (e.g., 28.6 percent silt, 18.8 percent clay, and 52.6 percent sand, with a pH of about 5.8 and an organic matter content of about 1.8 percent) and calcareous grit in an 80 to 20 ratio. The soil matrix was contained in plastic pots with a volume of 1 quart and a surface area of 83.6 square centimeters (cm^2). When required to ensure good germination and healthy plants, a fungicide treatment and/or other chemical or physical treatment was applied. The plants were grown for 8-22 days in a greenhouse with an approximate 14 h photoperiod which was maintained at about 29° C. during the day and 26° C. during the night. Nutrients (Peters Excel® 15-5-15 5-Ca 2-Mg and iron chelate) were applied in the irrigation solution as needed and water was added on a regular basis. Supplemental lighting was provided with overhead metal halide 1000-Watt lamps as necessary. The plants were employed for testing when they reached the first through fourth true leaf stage.
Treatments consisted of the acid or esters of 4-amino-3-chloro-5-fluoro-6-(4-chloro-2-fluoro-3-methoxy-phenyl) pyridine-2-carboxylic acid (Compound A), each formulated as an SC (suspension concentrate), and various herbicidal components alone and in combination. Forms of compound A were applied on an acid equivalent basis.
Other herbicidal components were applied on an active ingredient basis and included auxin transport inhibiting (ATI) herbicides chlorflurenol (technical material), chlorflurenol-methyl (technical material), diflufenzopyr (technical material), diflufenzopyr sodium (technical material), flurenol-methyl (technical material) and naptalam (technical material).
Treatment requirements were calculated based upon the rates being tested, the concentration of active ingredient or acid equivalent in the formulation, and a 12 mL application volume at a rate of 187 L/ha.
For treatments comprised of formulated and technical compounds, weighed amounts of the technical materials were placed individually in 25 mL glass vials and dissolved in a volume of 97:3 v/v acetone/DMSO to obtain 12× stock solutions, and measured amounts of the formulated compounds were placed individually in 25 mL glass vials and diluted in a volume of 1.5% (v/v) crop oil concentrate or water to obtain 12× stock solutions. […] Application solutions were prepared by adding an appropriate amount of each stock solution (e.g., 1 mL) and diluted to the appropriate final concentrations with the addition of an appropriate amount of an aqueous mixture of 1.5% (v/v) crop oil concentrate so that the final spray solutions contained 1.25% (v/v) crop oil concentrate. When required, additional water and/or 97:3 v/v acetone/DMSO was added to individual application solutions so that the final acetone and DMSO concentrations of the application solutions being compared were 8.1% and 0.25%, respectively.
All stock solutions and applications solutions were visually inspected for compound compatibility prior to application. Spray solutions were applied to the plant material with an overhead Mandel track sprayer equipped with an 8002E nozzle calibrated to deliver 187 L/ha over an application area of 0.503 m^2 at a spray height of 18 to 20 inches (46 to 50 cm) above average plant canopy height. Control plants were sprayed in the same manner with the solvent blank.
The treated plants and control plants were placed in a greenhouse as described above and watered by sub-irrigation to prevent wash-off of the test compounds. After approximately 3 weeks, the condition of the test plants as compared with that of the untreated plants was determined visually and scored on a scale of 0 to 100 percent where 0 corresponds to no injury or growth inhibition and 100 corresponds to complete kill. […]

SCPMA = assay: In-water applied (paddy) greenhouse weed control, SCPMA; assay type: in vivo
Protocol: (§1) Weed seeds or nutlets of the desired test plant species were planted in puddled soil (mud) prepared by mixing a shredded, non-sterilized mineral soil (50.5 percent silt, 25.5 percent clay, and 24 percent sand, with a pH of about 7.6 and an organic matter content of about 2.9 percent) and water at a 1:1 volumetric ratio. The prepared mud was dispensed in 365 mL aliquots into 16-ounce (oz.) non-perforated plastic pots with a surface area of 86.59 square centimeters (cm^2) leaving a headspace of 3 centimeters (cm) in each pot. Mud was allowed to dry overnight prior to planting or transplanting. Rice seeds were planted in Sun Gro MetroMix® 306 planting mixture, which typically has a pH of 6.0 to 6.8 and an organic matter content of about 30 percent, in plastic plug trays. Seedlings at the second or third leaf stage of growth were transplanted into 840 mL of mud contained in 32-oz. non-perforated plastic pots with a surface area of 86.59 cm^2 4 days prior to herbicide application. The paddy was created by filling the headspace of the pots with 2.5 to 3 cm of water. When required to ensure good germination and healthy plants, a fungicide treatment and/or other chemical or physical treatment was applied. The plants were grown for 4-22 days in a greenhouse with an approximate 14 h photoperiod which was maintained at about 29′C during the day and 26° C. during the night. Nutrients were added as Osmocote® (19:6:12, N:P:K+minor nutrients) at 2 g per 16-oz. pot and 4 g per 960-mL 32-oz. pot. Water was added on a regular basis to maintain the paddy flood, and supplemental lighting was provided with overhead metal halide 1000-Watt lamps as necessary. The plants were employed for testing when they reached the second or third true leaf stage.
(§2) Treatments consisted of the acid or esters of 4-amino-3-chloro-5-fluoro-6-(4-chloro-2-fluoro-3-methoxy-phenyl)pyridine-2-carboxylic acid (compound A) each formulated as an SC and various herbicidal components alone and in combination. Forms of compound A were applied on an acid equivalent basis.
(§3) Other herbicidal components were applied on an active ingredient basis and included auxin transport inhibiting (ATI) herbicides chlorflurenol-methyl (technical material), chlorflurenol (technical material), diflufenzopyr (technical material), dilfufenzopyr sodium (technical material), flurenol-methyl (technical material,) and naptalam (technical material).
(§4) Treatment requirements for each compound or herbicidal component were calculated based upon the rates being tested, the concentration of active ingredient or acid equivalent in the formulation, an application volume of 2 mL per component per pot, and an application area of 86.59 cm^2 per pot.
(§5) For formulated compounds, a measured amount was placed in an individual 100 or 200 mL glass vial and was dissolved in a volume of 1.25% (v/v) Agri-Dex® crop oil concentrate to obtain application solutions.
(§6) For technical grade compounds, a weighed amount was placed in an individual 100 to 200 mL glass vial and was dissolved in a volume of acetone to obtain concentrated stock solutions. […] The concentrated stock solutions obtained were diluted with an equivalent volume of an aqueous mixture containing 2.5% (v/v) crop oil concentrate so that the final application solutions contained 1.25% (v/v) crop oil concentrate.
(§7) Applications were made by injecting with a pipetter appropriate amounts of the application solutions, individually and sequentially, into the aqueous layer of the paddy. Control plants were treated in the same manner with the solvent blank. Applications were made so that all treated plant material received the same concentrations of acetone and crop oil concentrate.
(§8) The treated plants and control plants were placed in a greenhouse as described above and water was added as needed to maintain a paddy flood. […]

LEFCH = assay: In-water applied (paddy) greenhouse weed control, LEFCH; assay type: in vivo, Leptochloa chinensis (L.) Nees; conditions: 20 DAA
Protocol: as §1, §2, §3, §4, §5, §6, §7, §8

SMILES | Visual Weed Control (%) Obs (ECHCG; 4.38 gae/ha) | Visual Weed Control (%) Obs (ECHCG; 8.75 gae/ha) | Visual Weed Control (%) Obs (SCPMA; 20 DAA, 8.75 gae/ha) | Visual Weed Control (%) Obs (SCPMA; 20 DAA, 17.5 gae/ha) | Visual Weed Control (%) Obs (SCPMA; 20 DAA, 35 gae/ha) | Visual Weed Control (%) Obs (SCPMA; 22 DAA, 8.75 gae/ha) | Visual Weed Control (%) Obs (SCPMA; 22 DAA, 17.5 gae/ha) | Visual Weed Control (%) Obs (SCPMA; 22 DAA, 35 gae/ha) | Visual Weed Control (%) Obs (LEFCH; 8.75 gae/ha) | Visual Weed Control (%) Obs (LEFCH; 17.5 gae/ha) | Visual Weed Control (%) Obs (LEFCH; 35 gae/ha) | Visual Weed Control (%) Obs (SCPMA; 20 DAA, 4.38 gae/ha) | Visual Weed Control (%) Obs (LEFCH; 4.38 gae/ha)
COc1c(Cl)ccc(-c2nc(C(=O)O)c(Cl)c(N)c2F)c1F [Compound A Acid, 4-amino-3-chloro-6-(4-chloro-2-fluoro-3-methoxyphenyl)-5-fluoropyridine-2-carboxylic acid] | 60% | 80% | 0% | 0% | 30% | 0% | 0% | 0% | 20% | 0% | 30% | – | –
COc1c(Cl)ccc(-c2nc(C(=O)OCc3ccccc3)c(Cl)c(N)c2F)c1F [Compound A Benzyl Ester] | 60% | – | 0% | 0% | – | 0% | 0% | – | 20% | 30% | – | 0% | 0%
